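Step 1: Grow cells in 96-well plates. Step 2: Expose to compound for 48 hours at 5 concentrations. Step 3: Interpolate endpoints linearly; if unreached, use highest concentration. GI50 = concentration required for 50% inhibition of growth.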 The source made the active and inactive calls. Rule as the data show it: active = GI50 up to about 1.1 µM and inactive = higher.

We go through two molecules from ChEMBL document CHEMBL1201862, “PubChem BioAssay data set” (2004).

Test systems include RPMI-8226; NCI/ADR-RES; A549; T47D; M14; HCC 2998; MDA-MB-231; OVCAR-3; SF-295; IGROV-1; Malme-3M; NCI-H460; Hs-578T; UACC-257; NCI-H23; HCT-116; LOX IMVI; SK-MEL-2; PC-3; CCRF-CEM.
Assay in all cases: NCI-60 cell line screen, 48 h

In the case of `OC(c1ccc(-c2ccccc2)cc1)C(F)(F)c1nc2ccccc2o1` (stereo not given), the GI50 was 51.3 µM (inactive) with RPMI-8226; > 79.8 µM (inactive) in the experiment with NCI/ADR-RES; 40.4 µM (inactive) in the experiment on A549; 31.8 µM (inactive) with T47D; > 100 µM (inactive) in the experiment on M14; > 100 µM (inactive) in the experiment with HCC 2998. The GI50 with MDA-MB-231 was 17.5 µM (inactive); in the experiment with OVCAR-3 it was 35.8 µM (inactive); in the experiment on SF-295, 96.4 µM (inactive); with IGROV-1 it was 34 µM (inactive); with Malme-3M, 91.8 µM (inactive); in the experiment with NCI-H460 it was 37.5 µM (inactive). The GI50 is 20.9 µM (inactive) in the experiment on Hs-578T; 40.3 µM (inactive) with UACC-257; 39.9 µM (inactive) with NCI-H23; 45.2 µM (inactive) in the experiment with HCT-116; > 95.3 µM (inactive) with LOX IMVI; > 100 µM (inactive) with SK-MEL-2. Besides, the GI50 was 65.9 µM (inactive) in the experiment with PC-3 and > 45 µM (inactive) in the experiment with CCRF-CEM.
In the case of `C=C1CC(Cn2ccc(=O)[nH]c2=O)(c2ccc(-c3ccccc3)cc2)OC1=O` (stereo not given), the GI50 in the experiment with RPMI-8226 was 0.234 µM (active); with NCI/ADR-RES, 0.805 µM (active); with A549, 11.1 µM (inactive); with T47D, 1.57 µM (inactive); with M14, 1.67 µM (inactive); in the experiment with HCC 2998 it was 2.07 µM (inactive). The GI50 with MDA-MB-231 was 1.98 µM (inactive); in the experiment with OVCAR-3, 1.98 µM (inactive); in the experiment on SF-295, 12.5 µM (inactive); in the experiment on IGROV-1 it was 1.04 µM (active); in the experiment on Malme-3M, 1.46 µM (inactive); in the experiment on NCI-H460, 11.2 µM (inactive). Also, the GI50 in the experiment with Hs-578T is 3.7 µM (inactive); in the experiment with UACC-257, 1.65 µM (inactive); in the experiment on NCI-H23 it was 1.98 µM (inactive); in the experiment with HCT-116 it was 0.377 µM (active); with LOX IMVI, 0.493 µM (active); in the experiment on SK-MEL-2 it was 2.09 µM (inactive). Moreover, the GI50 in the experiment with PC-3 was 3.2 µM (inactive); in the experiment with CCRF-CEM it was 0.305 µM (active).
